Assay results published in article PMC10901950, “Neuroprotective and Anti-inflammatory Effects of Rubiscolin-6 Analogs with Proline Surrogates in Position 2” (Neurochemical Research, 2023).
Square brackets hold non-standard residues; d marks the D form. Ends that are not written are not given here. Peptide text beside a SMILES is read from it. Dmt = Cc1cc(O)cc(C)c1C[C@H](N)C(=O)O; Inp = O=C(O)C1CCNCC1

Legend:
[1] = tested on: SH-SY5Y cells; experiment: Mitochondrial membrane potential (JC-1) in 6-OHDA-treated SH-SY5Y cells; type: cell-based, human; settings: 6-OHDA 100 µM, 6 h
Protocol: Mitochondrial function was assessed by monitoring changes in MMP (∆Ψm) using the fluorescent probe, JC-1 fluorescence dye (5,5′,6,6′-tetrachloro-1,1′,3,3′-tetraethyl-imidacarbocyanine iodide, Molecular Probes, T3168, Eugene, Oregon, USA). The assay was performed according to the method described by Silva et al.. Briefly, SH-SY5Y cells were exposed 6 h to 6-OHDA (100 μM) in the presence or absence of peptides. After incubation, cells were washed with ice-cold PBS, and then JC-1 reagent (3 µM, 200 µL) was added for 15 min at 37 °C. Afterwards, JC-1 was removed, and cells were washed with PBS. The formation of JC-1 aggregates (490 nm of excitation and 590 nm of emission) and the monomeric form of JC-1 (490 nm of excitation and 530 nm of emission) was accompanied simultaneously in the plate reader for 30 min. Results were expressed as the ratio of the monomers/aggregates of JC-1 in the percentage of control.

[2] = tested on: mTOR; experiment: Western blot, mTOR phosphorylation in 6-OHDA-treated SH-SY5Y cells; type: cell-based, human; settings: peptide 1 and 10 µM, 24 h
Protocol: The neuroblastoma SH-SY5Y cells were grown in a 6-well plate and when 80–90% confluent treated with 6-OHDA (100 µM) for 24 h. Then cells were stimulated with peptides for 2.5, 5, 7.5 and 10 min (for AKT) or 24 h (for mTOR). When needed, a 30 min pre-incubation step with LY 294002 was included before analogs and 6-OHDA addition. Stimulation was terminated by aspiration of the medium. Cells were washed 2 times with ice-cold PBS, and then 200 µL of ice-cold lysis buffer [150 mM NaCl, 20 mM Tris–HCl, glycerol, 5 mM EDTA, 0.5 mM phenylmethylsulphonylfluoride (PMSF), 10% Triton X-100, 100 mM protease inhibitors, pH 7.4] was added. Cells were incubated on ice for 15 min. Lysates were then centrifuged at 12,000×g for 10 min at 4 °C, and the supernatants were used as the total cell lysates. The protein content in the supernatants was quantified using the Bio-Rad protein assay kit. […] Following six washes with TBS-T, the protein bands were detected with the Clarity Western ECL reagent from Bio-Rad. The band intensity was quantified by NIH ImageJ densitometric analysis. For quantification, specific phosphorylation was calculated as the ratio of phosphorylated AKT or mTOR signals to the total Akt or mTOR signal detected. […]

[3] = Ferric reducing antioxidant power (FRAP); settings: peptides 10 µM, 37 °C, 30 min, absorbance 593 nm; mean ± SEM
Protocol: FRAP assay adapted to microscale with minor modifications was used to measure the ferric reducing ability of peptides. Acetate buffer (0.3 M, pH 3.6), 2,4,6-Tris(2-pyridyl)-s-triazine (TPTZ, 10 mM prepared in 40 mM HCl), and ferric solutions (20 mM) were freshly mixed at a ratio of 10:1:1 and place in a 96-well microplate. Then, 198 µL of FRAP reagent and 2 µL of the peptide sample was mixed and incubated at 37 °C in the dark for 30 min. The absorbance was measured at 593 nm using a microplate reader (Bioteck, Epoch/2 microplate reader, Winooski, VT, USA). The difference between the absorbance of the test sample and the blank reading was calculated and expressed as µM of FeSO4/g of the peptide. FeSO4 was used as standard.

[4] = tested on: RAW 264.7 cells; experiment: Intracellular ROS generation in RAW 264.7 cells (not stimulated); type: cell-based, mouse; settings: 0.1-10 µM, 24 h, DCFH-DA, unstimulated cells
Protocol: The detection of ROS generated in injured cells was evaluated using the 5(6)-carboxy-2ʹ,7ʹ-dichlorofluorescein diacetate (carboxy-H2DCFDA) reagent (Invitrogen, Bleiswijk, Netherlands). After incubation, cells were washed with ice-cold Phosphate-Buffer Saline (PBS). Then, the carboxyl-H2DCFDA (100 µL, 20 µM) reagent was added and incubated for 1 h at 37 °C. Finally, the fluorescence intensity was measured at wavelengths of […], and ROS levels were presented in percentage of control (non-treated cells).

[5] = Oxygen radical absorption capacity (ORAC); settings: peptides 10 µM, AAPH 12 mM, fluorescein; mean ± SEM
Protocol: The ability of peptides to neutralize the peroxyl radicals was evaluated in ORAC according to the described method. Peptides (20 µL) and fluorescein (120 µL; 70 nM) were placed in a microplate well and pre-incubated for 15 min at 37 °C. Then, 60 µL of 2,2ʹ-azobis (2-amidino-propane) dihydrochloride (AAPH) as a radical generator was added in a final concentration of 12 mM. The fluorescence was read at wavelengths of 458 nm (excitation) and 520 nm (emission) and recorded every minute for 240 min. A blank using phosphate buffer instead of […] and a calibration curve using Trolox as standard (1–8 µM, final concentration) were also carried on in each assay. Final results were presented in µmol of Trolox equivalents/ µM peptide (µmol TE/ µM peptide).

## Cc1cc(O)cc(C)c1C[C@H](N)C(=O)N1CCC[C@H]1C(=O)N[C@@H](CC(C)C)C(=O)N[C@@H](CC(=O)O)C(=O)N[C@@H](CC(C)C)C(=O)N[C@@H](Cc1ccccc1)C(=O)O [analog 1, Dmt-Pro-Leu-Asp-Leu-Phe-OH] (H-[Dmt]PLDLF-OH)
[1]; peptide 10 µM
  effect on MMP depolarization: couldn’t decrease

## Cc1cc(O)cc(C)c1C[C@H](N)C(=O)N1CCC(C(=O)N[C@@H](CC(C)C)C(=O)N[C@@H](CC(=O)O)C(=O)N[C@@H](CC(C)C)C(=O)N[C@@H](Cc2ccccc2)C(=O)O)CC1 [analog 5, Dmt-Inp-Leu-Asp-Leu-Phe-OH] (H-[Dmt][Inp]LDLF-OH)
[2]
  phosphorylated mTOR compared with the 6-OHDA-injured group: significant increase

## CC(C)C[C@H](NC(=O)C1CCN(C(=O)[C@@H](N)Cc2ccc(O)cc2)CC1)C(=O)N[C@@H](CC(=O)O)C(=O)N[C@@H](CC(C)C)C(=O)N[C@@H](Cc1ccccc1)C(N)=O [analog 7, Tyr-Inp-Leu-Asp-Leu-Phe-NH2] (H-Y[Inp]LDLF-NH2)
[2]
  phosphorylated mTOR compared with the 6-OHDA-injured group: significant increase

## YPLDLF [R-6, rubiscolin-6]
[3]
  FRAP, ability to reduce iron ions: 1.09 ± 0.20 µM Eq. FeSO4/g of peptide
[1]; peptide 0.1-10 µM
  effect on MMP changes caused by the neurotoxin: markedly decreased
[4]
  effect on intracellular ROS levels: did not affect
[5]
  ORAC, ability to neutralize the peroxyl radicals: 2789 ± 131.6 µmol Eq. Trolox/g of peptide

## YPLDLF-NH2 [analog 6, Tyr-Pro-Leu-Asp-Leu-Phe-NH2]
[3]
  FRAP, ability to reduce iron ions: 0.87 ± 0.22 µM Eq. FeSO4/g of peptide
[5]
  ORAC, ability to neutralize the peroxyl radicals: 3143 ± 164.4 µmol Eq. Trolox/g of peptide
